In experiment [1] the target is T1, rod CNG channels (CNGA1:CNGB1a) (Bos taurus, UniProt Q00194+Q28181).
T1 construct: expressed in transfected cells; host or cells: Xenopus laevis oocytes (cRNA injection, pGEMHE vector); inside-out patches
Nature of the experiment: Patch-clamp on inside-out patches, heterotetrameric rod CNG channels expressed in Xenopus laevis oocytes. It is filed as cell-based, bovine. The following applies: for efficacy in activating rod CNG channels compared to cGMP: related to maximal cGMP-induced current; for effect on cGMP-activated rod CNG-channel activity: analogue(s) co-applied with cGMP (50 µM; combination 50 µM inhibitor + activator). From the text: The patch pipettes were pulled from borosilicate glass tubing (outer diameter 2.0 mm, inner diameter 1.0 mm; Hilgenberg GmbH, Malsfeld, Germany). The initial resistance of the solution-filled pipettes was 0.6–1.4 MΩ. […] For studying the activation and deactivation kinetics of CNG channels, we performed fast jumps between different ligand concentrations by means of a double-barreled θ-glass pipette mounted on a piezo-driven device, which was controlled by the computer. For measuring the time courses, the recording rate was 20 kHz. […]
On the technique in general: The patch-clamp technique gives a direct electrical read-out from membranes.

The target of experiment [2] is T2, cone CNG channels (CNGA3:CNGB3) (Homo sapiens, UniProt Q16281+Q9NQW8).
T2 construct: expressed in transfected cells; host or cells: Xenopus laevis oocytes (cRNA injection, pGEMHE vector); inside-out patches
T2 sequence (Q16281 1-694): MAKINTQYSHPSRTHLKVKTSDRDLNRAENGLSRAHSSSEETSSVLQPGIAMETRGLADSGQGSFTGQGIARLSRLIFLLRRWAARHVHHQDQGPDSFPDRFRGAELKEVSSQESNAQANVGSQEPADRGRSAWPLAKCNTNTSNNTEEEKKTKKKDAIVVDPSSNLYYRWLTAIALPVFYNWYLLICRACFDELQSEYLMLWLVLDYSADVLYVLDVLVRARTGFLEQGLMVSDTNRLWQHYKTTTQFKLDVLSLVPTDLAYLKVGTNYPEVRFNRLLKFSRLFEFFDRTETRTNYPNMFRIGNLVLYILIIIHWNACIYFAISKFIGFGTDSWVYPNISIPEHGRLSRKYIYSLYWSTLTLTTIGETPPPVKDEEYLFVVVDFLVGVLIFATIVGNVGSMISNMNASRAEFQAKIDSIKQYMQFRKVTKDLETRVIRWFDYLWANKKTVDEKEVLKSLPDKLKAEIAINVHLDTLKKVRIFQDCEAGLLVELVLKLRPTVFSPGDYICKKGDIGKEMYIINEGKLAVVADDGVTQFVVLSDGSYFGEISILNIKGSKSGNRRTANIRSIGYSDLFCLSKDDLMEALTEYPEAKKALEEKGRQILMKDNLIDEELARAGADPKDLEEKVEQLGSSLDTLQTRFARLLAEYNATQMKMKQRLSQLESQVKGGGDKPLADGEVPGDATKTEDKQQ
T2 sequence (Q9NQW8 1-809): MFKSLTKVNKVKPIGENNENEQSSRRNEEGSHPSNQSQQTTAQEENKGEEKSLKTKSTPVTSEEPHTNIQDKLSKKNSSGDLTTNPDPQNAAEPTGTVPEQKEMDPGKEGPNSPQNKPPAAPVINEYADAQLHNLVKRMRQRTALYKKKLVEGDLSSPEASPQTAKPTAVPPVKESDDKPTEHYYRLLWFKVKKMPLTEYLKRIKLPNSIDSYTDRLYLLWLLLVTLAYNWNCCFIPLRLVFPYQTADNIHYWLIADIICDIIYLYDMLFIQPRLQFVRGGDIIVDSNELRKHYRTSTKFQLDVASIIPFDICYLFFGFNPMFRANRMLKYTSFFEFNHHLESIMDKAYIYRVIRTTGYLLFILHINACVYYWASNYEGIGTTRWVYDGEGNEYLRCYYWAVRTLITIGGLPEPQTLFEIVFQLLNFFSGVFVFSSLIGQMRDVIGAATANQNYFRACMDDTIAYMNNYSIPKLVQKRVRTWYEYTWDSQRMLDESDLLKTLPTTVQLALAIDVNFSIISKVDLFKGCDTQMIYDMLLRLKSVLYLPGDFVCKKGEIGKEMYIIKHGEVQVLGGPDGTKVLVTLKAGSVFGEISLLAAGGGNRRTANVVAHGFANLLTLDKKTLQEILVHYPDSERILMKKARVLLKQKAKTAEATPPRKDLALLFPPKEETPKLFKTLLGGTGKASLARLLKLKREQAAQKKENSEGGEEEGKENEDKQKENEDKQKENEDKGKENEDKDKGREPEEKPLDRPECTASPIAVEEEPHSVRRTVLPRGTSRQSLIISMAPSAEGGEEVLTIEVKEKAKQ
Nature of the experiment: Patch-clamp on inside-out patches, heterotetrameric cone CNG channels expressed in Xenopus laevis oocytes. It is filed as cell-based. The following applies: for efficacy in activating cone CNG channels compared to cGMP: related to maximal cGMP-induced current; for EC50: concentration-activation relationship, Hill fit, read-out: EC50, cone CNG channels; for effect on cGMP-activated cone CNG-channel activity: analogue(s) co-applied with cGMP (50 µM; combination 50 µM inhibitor + activator). An excerpt:
The patch pipettes were pulled from borosilicate glass tubing (outer diameter 2.0 mm, inner diameter 1.0 mm; Hilgenberg GmbH, Malsfeld, Germany). The initial resistance of the solution-filled pipettes was 0.6–1.4 MΩ. […] For studying the activation and deactivation kinetics of CNG channels, we performed fast jumps between different ligand concentrations by means of a double-barreled θ-glass pipette mounted on a piezo-driven device, which was controlled by the computer. For measuring the time courses, the recording rate was 20 kHz.
The activation and deactivation time courses were determined by fitting the respective current traces with single exponentials:(3) I(t)=A∗exp[−t/τ] where A is the amplitude, t the time, and τ the time constant for either activation or deactivation.

The test system of experiment [3] is CNG-channel in rods. Also noted: method as in PMID 8778280. The note with it: previous study, ref [44]; cited from earlier work.
Setting [4] is: cGMP + 50 µM of the cGMP analogue.
[5] abbreviates: 100 µM, +100 mV, activity triggered by 3 mM cGMP.

Results on ten compounds are retold here after article PMC9612005 (Pharmaceutics, 2022).

T1 sequence (Q00194 whole entry): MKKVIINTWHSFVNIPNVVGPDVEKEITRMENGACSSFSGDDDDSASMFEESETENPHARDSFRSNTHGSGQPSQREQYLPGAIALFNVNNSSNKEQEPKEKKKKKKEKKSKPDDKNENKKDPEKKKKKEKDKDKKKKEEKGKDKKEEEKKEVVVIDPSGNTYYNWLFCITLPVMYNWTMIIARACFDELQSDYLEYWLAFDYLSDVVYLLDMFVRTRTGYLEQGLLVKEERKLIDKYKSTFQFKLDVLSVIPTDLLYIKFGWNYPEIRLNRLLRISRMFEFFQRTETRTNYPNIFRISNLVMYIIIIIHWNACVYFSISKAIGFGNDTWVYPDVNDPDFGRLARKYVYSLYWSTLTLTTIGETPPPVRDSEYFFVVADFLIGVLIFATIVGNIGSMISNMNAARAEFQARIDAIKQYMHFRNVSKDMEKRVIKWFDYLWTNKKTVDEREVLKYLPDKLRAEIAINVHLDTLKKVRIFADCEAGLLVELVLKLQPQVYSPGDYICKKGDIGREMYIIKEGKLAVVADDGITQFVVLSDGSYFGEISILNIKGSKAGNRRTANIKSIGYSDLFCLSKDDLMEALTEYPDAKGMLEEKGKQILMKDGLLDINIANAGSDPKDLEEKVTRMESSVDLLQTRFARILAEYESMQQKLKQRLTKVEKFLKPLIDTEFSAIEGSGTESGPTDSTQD
T1 sequence (Q28181 whole entry): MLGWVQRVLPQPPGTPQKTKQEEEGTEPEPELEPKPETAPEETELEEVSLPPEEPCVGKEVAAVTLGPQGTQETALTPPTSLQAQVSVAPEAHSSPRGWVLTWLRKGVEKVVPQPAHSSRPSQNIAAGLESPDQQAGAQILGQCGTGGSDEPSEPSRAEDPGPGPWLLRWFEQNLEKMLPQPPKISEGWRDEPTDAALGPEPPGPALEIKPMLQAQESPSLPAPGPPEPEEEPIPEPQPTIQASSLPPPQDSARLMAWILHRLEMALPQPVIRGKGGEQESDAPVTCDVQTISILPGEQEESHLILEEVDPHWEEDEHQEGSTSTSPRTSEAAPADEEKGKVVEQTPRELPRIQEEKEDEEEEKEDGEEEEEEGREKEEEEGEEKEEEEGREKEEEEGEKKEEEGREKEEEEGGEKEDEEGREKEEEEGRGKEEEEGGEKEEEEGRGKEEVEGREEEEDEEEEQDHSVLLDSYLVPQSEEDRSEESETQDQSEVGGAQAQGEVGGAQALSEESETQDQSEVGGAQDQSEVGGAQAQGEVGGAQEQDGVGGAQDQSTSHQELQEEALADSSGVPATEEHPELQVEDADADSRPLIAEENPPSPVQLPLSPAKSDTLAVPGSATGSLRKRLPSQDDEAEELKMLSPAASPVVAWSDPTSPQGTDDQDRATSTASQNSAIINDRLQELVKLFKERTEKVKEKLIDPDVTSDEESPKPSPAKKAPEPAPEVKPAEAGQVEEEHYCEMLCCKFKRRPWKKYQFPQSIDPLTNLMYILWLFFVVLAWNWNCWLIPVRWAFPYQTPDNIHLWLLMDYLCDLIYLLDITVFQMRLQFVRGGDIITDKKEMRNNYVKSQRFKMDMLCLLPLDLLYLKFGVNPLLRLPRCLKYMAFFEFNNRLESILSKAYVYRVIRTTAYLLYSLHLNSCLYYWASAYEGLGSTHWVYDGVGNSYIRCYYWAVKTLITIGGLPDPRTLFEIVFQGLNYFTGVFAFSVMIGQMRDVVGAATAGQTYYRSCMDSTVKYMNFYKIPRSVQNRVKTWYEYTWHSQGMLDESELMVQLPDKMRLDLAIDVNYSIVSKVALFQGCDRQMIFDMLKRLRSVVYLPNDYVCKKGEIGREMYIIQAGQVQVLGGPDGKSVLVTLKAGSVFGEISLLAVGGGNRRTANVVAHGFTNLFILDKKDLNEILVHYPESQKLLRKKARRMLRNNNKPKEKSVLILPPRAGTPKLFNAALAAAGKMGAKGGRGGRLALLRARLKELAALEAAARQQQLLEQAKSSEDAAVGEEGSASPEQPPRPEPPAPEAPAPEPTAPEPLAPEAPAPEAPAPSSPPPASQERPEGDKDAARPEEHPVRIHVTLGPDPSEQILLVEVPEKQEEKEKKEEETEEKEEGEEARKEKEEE

For `O=c1c2nc(Br)n([C@@H]3O[C@@H]4CO[P@@](=O)(S)O[C@H]4[C@H]3O)c2nc2[nH]c(-c3ccc4ccccc4c3)cn12` [Rp-8-Br-(2-N)ET-cGMPS], the “efficacy in activating rod CNG channels compared to cGMP” value in experiment [1] (+100 mV) was “lower efficacy than cGMP”. Besides, the “H (Hill coefficient), rod CNG channels” value in experiment [1] (setting [4]) is 1.66. Also, the “efficacy in activating cone CNG channels compared to cGMP” value in experiment [2] (+100 mV) is “lower efficacy than cGMP”. In addition, the “H (Hill coefficient), cone CNG channels” value in experiment [2] (setting [4]) is 1.53.
With `Nc1nc2c(nc(Br)n2[C@@H]2O[C@@H]3COP(=O)(O)O[C@H]3[C@H]2O)c(=O)[nH]1` [8-Br-cGMP], the “H (Hill coefficient), rod CNG channels” value in experiment [1] (ligand alone) turned out to be 2.1. In addition, the EC50 in experiment [1] (ligand alone, concentration-activation relationship, Hill fit, read-out: EC50, rod CNG channels) was determined as 6.61 µM. Moreover, in experiment [2] (ligand alone), the “H (Hill coefficient), cone CNG channels” value was 1.94 and the EC50 was determined as 1.05 µM.
Consider `O=C1Cn2c(nc3c(nc(Br)n3[C@@H]3O[C@@H]4CO[P@@](=O)(S)O[C@H]4[C@H]3O)c2=O)N1` [Rp-ß-1,N2-Ac-Br-cGMPS, Rp-ß-1,N^2-Ac-Br-cGMPS], for which the “efficacy in activating rod CNG channels compared to cGMP” value in experiment [1] (+100 mV) is on record as “lower efficacy than cGMP”. Besides, the “H (Hill coefficient), rod CNG channels” value in experiment [1] (setting [4]) is on record as 2.06. In experiment [2] (+100 mV), the “efficacy in activating cone CNG channels compared to cGMP” value was “lower efficacy than cGMP”. Besides, in experiment [2], the “effect on cGMP-activated cone CNG-channel activity” value is recorded as “did not influence the activity of cone channels”. The “H (Hill coefficient), cone CNG channels” value in experiment [2] (setting [4]) stood at 1.64.
Take `O=c1c2ncn([C@@H]3O[C@@H]4CO[P@@](=O)(S)O[C@H]4[C@H]3O)c2nc2[nH]c(-c3ccc4ccccc4c3)cn12` [Rp-(2-N)ET-cGMPS]: the “efficacy in activating rod CNG channels compared to cGMP” value in experiment [1] (+100 mV) is listed as “lower efficacy than cGMP”. For the same compound, the “H (Hill coefficient), rod CNG channels” value in experiment [1] (setting [4]) was determined as 1.68. In experiment [2] (+100 mV), the “efficacy in activating cone CNG channels compared to cGMP” value is recorded as “lower efficacy than cGMP”. Besides, the “H (Hill coefficient), cone CNG channels” value in experiment [2] (setting [4]) turned out to be 1.84.
Consider `Nc1nc2c(ncn2[C@@H]2O[C@@H]3CO[P@@](=O)(S)O[C@H]3[C@H]2O)c(=O)[nH]1` [Rp-cGMPS], for which, in experiment [1] (+100 mV), the “efficacy in activating rod CNG channels compared to cGMP” value is on record as “lower efficacy than cGMP”. The “H (Hill coefficient), rod CNG channels” value in experiment [1] (setting [4]) stood at 1.52. Moreover, the “efficacy in activating cone CNG channels compared to cGMP” value in experiment [2] (+100 mV) was “lower efficacy than cGMP”. In addition, the “effect on cGMP-activated cone CNG-channel activity” value in experiment [2] is given as “did not influence the activity of cone channels”. For the same compound, the “H (Hill coefficient), cone CNG channels” value in experiment [2] (setting [4]) was 1.13.
For the compound `Nc1nc2c(ncn2[C@@H]2O[C@@H]3COP(=O)(O)O[C@H]3[C@H]2O)c(=O)[nH]1` [cGMP, reference compound], in experiment [1] (ligand alone), the “H (Hill coefficient), rod CNG channels” value is given as 2.1. For the same compound, in experiment [2] (5 µM cGMP alone or 5 µM cGMP + 50 µM inhibitor + 0.1 µM activator, concentration jump), the “deactivation time constant τdeact, cone CNG channels” value amounted to 80.6 ± 4.6 ms. Further, in experiment [2] (ligand alone), the “H (Hill coefficient), cone CNG channels” value is listed as 1.47 and the EC50 was found to be 11.1 µM.
Turning to `O=c1c2nc(Br)n([C@@H]3O[C@@H]4COP(=O)(O)O[C@H]4[C@H]3O)c2nc2[nH]c(-c3ccccc3)cn12` [8-Br-PET-cGMP], the “effect on cGMP-activated rod CNG-channel activity” value in experiment [1] is listed as “under physiological cGMP it produced a potentiation of retinal CNG-channel activity, whereas at higher cGMP it caused minor inhibition”. For the same compound, the “H (Hill coefficient), rod CNG channels” value in experiment [1] (setting [4]) is 1.05. The Emax in experiment [1] (read-out: efficacy of activating rod channel, of maximal activation) was below 1%. The “effect on cGMP-activated cone CNG-channel activity” value in experiment [2] is on record as “under physiological cGMP it produced a potentiation of retinal CNG-channel activity, whereas at higher cGMP it caused minor inhibition”. Besides, the “H (Hill coefficient), cone CNG channels” value in experiment [2] (setting [4]) is recorded as 1.5.
For the compound `Nc1nc2c(nc(Sc3ccc(Cl)cc3)n2[C@@H]2O[C@@H]3CO[P@@](=O)(S)O[C@H]3[C@H]2O)c(=O)[nH]1` [Rp-8-pCPT-cGMPS], the “efficacy in activating rod CNG channels compared to cGMP” value in experiment [1] (+100 mV) was “drastically reduced the efficacy”. Also, in experiment [1], the “effect on cGMP-activated rod CNG-channel activity” value was “their activity at physiological cGMP increased, and at higher cGMP levels decreased”. Further, the “H (Hill coefficient), rod CNG channels” value in experiment [1] (setting [4]) is given as 1.23. In addition, the “efficacy in activating cone CNG channels compared to cGMP” value in experiment [2] (+100 mV) was “drastically reduced the efficacy”. For the same compound, the “effect on cGMP-activated cone CNG-channel activity” value in experiment [2] was “their activity at physiological cGMP increased, and at higher cGMP levels decreased”. For the same compound, in experiment [2] (setting [4]), the “H (Hill coefficient), cone CNG channels” value was found to be 1.04. For the same compound, the “maximal CNG-channel activation in rods” value in experiment [3] was ~ 93%.
`O=c1c2ncn([C@@H]3O[C@@H]4COP(=O)(O)O[C@H]4[C@H]3O)c2nc2[nH]c(-c3ccccc3)cn12` [PET-cGMP]: in experiment [1] (+100 mV), the “efficacy in activating rod CNG channels compared to cGMP” value was “partial agonist”. The “efficacy in activating cone CNG channels compared to cGMP” value in experiment [2] (+100 mV) is given as “partial agonist”.
Regarding `COc1ccc([C@H]2Sc3ccccc3N(CCN(C)C)C(=O)[C@H]2OC(C)=O)cc1` (relative stereo) [L-cis-diltiazem, reference compound], the “block of rod CNG channel activity” value in experiment [1] (setting [5]) is given as ~ 90.5%. In addition, in experiment [2] (setting [5]), the “block of cone CNG channel activity” value is listed as ~ 63.4%.

Broadly, the EC50 is the midpoint of the concentration-response curve.
